Measurements published in ChEMBL document CHEMBL3621135 (ACS Med Chem Lett, 2015).
pIC50, pKd: −log10 of the molar value.

Tests used:
[1] = Inhibition of CYP450 in human liver microsomes; format: ADME
[2] = Antiproliferative activity against human SET2 cells incubated for 72 hrs by [3H] thymidine incorporation assay; format: functional, cell-based; details: SET-2
Mus musculus [3] = test: Inhibition of JAK2 in mouse pharamcodynamic model assessed as reduction in STAT5 phosphorylation at 10 mg/kg, po measured up to 18 hrs; format: functional
[4] = target: Tyrosine-protein kinase JAK1 (Homo sapiens, UniProt P23458); test: Binding affinity to JAK1 (unknown origin) assessed as dissociation constant
A549 = test: Antiproliferative activity against human A549 cells incubated for 72 hrs by [3H] thymidine incorporation assay; format: functional, cell-based
Mus musculus [5] = test: Inhibition of JAK2 in mouse pharamcodynamic model assessed as reduction in STAT5 phosphorylation at 5 mg/kg, po measured after 8 hrs; format: functional

Chain of Tyrosine-protein kinase JAK1 (P23458 whole entry): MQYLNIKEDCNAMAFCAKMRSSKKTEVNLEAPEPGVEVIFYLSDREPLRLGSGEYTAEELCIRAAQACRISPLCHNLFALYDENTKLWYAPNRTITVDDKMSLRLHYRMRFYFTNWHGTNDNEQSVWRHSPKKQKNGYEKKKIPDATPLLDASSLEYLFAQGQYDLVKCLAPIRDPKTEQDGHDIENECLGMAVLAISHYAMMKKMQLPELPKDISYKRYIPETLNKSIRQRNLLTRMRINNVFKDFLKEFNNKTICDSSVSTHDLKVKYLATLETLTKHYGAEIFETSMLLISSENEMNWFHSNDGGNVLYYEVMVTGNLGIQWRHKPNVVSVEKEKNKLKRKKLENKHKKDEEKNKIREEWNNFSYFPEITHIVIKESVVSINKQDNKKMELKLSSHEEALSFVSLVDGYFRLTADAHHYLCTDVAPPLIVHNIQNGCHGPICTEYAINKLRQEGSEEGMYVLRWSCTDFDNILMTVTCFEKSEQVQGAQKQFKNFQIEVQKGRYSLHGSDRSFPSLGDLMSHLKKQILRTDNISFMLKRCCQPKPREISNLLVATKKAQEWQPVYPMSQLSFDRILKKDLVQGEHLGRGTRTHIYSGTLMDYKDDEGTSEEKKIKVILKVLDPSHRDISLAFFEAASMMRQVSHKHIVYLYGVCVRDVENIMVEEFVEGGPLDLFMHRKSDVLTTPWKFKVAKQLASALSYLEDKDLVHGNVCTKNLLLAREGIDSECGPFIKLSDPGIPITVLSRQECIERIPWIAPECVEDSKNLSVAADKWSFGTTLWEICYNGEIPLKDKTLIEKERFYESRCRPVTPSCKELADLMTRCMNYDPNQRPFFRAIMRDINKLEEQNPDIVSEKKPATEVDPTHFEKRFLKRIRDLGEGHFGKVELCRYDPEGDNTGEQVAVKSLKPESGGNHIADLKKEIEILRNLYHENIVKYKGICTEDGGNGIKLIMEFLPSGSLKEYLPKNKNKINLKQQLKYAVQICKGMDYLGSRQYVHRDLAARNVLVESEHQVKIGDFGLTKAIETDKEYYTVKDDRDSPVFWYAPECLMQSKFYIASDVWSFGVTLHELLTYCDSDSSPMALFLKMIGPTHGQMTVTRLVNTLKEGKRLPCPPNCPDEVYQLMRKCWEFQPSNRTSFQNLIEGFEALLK

In the case of CCn1c(C(=O)N(C2CC2)C2CC2)cc2c3c(ncn3C)c(Nc3cc(C)n(C)n3)nc21 [BMS-911543], the pIC50 [1] was < 4.40, the pIC50 [2] was 7.22 and the inhibition in vivo at 10 mg/kg (Mus musculus [3]) was 65%. For the same compound, the pKd [4] was 6.96, the pIC50 (A549) was 5.62 and the inhibition in vivo at 5 mg/kg (Mus musculus [5]) was 50%.
